Values of other authors as cited in patent US20230118497A1, “PYRAZOLE-CONTAINING POLYCYCLIC DERIVATIVE INHIBITOR, PREPARATION METHOD THEREFOR AND APPLICATION THEREOF” (Shanghai Hansoh Biomedical Co., Ltd., priority 2019, published 2023).

Experiments:
P2X3/P2X2/3 = conditions: background; cited from earlier work
[1] = phase I clinical trials; cited from earlier work
[2] = phase 2 RELIEF trial, patients with refractory chronic cough, any dose; cited from earlier work

Compound: CNC(=O)c1cc(F)c(-c2nc3cc(C)ccn3c2C[C@H]2CN(C(=O)OC)CCO2)c(F)c1 [BLU5937]
- selectivity to P2X3/P2X2/3 (P2X3/P2X2/3): high selectivity
- side effects [1]: no side effects such as taste side effects appeared
- primary endpoint of placebo-adjusted reduction in cough frequency [2]: failed to achieve statistical significance
